Laboratory results reported in article PMC12104396, “Comparative in vitro assessment of CYP2C19 inhibition by ilaprazole and conventional proton pump inhibitors using a high throughput fluorometric assay” (Scientific Reports, 2025).
Values joined by “and” are separate entries in the source; they are usually repeats but may differ in a detail not shown here. Identical values can stand only once.

How the values were obtained:
CYP2C19 = biological target: T1, CYP2C19 (Homo sapiens, UniProt P33261); test: High-throughput fluorometric CYP2C19 inhibition assay (Vivid CYP2C19 Blue Screening Kit, EOMCC substrate, endpoint mode); assay type: biochemical; details: for Ki: approximated as IC50,u/2 (Cheng-Prusoff, S much lower than Km), read-out: Ki,u (unbound inhibition constant); for IC50: recombinant human CYP2C19 BACULOSOMES, eight concentrations, duplicate, nonlinear regression
T1 construct: purchased Thermo Scientific P2864
T1 sequence (P33261 whole entry): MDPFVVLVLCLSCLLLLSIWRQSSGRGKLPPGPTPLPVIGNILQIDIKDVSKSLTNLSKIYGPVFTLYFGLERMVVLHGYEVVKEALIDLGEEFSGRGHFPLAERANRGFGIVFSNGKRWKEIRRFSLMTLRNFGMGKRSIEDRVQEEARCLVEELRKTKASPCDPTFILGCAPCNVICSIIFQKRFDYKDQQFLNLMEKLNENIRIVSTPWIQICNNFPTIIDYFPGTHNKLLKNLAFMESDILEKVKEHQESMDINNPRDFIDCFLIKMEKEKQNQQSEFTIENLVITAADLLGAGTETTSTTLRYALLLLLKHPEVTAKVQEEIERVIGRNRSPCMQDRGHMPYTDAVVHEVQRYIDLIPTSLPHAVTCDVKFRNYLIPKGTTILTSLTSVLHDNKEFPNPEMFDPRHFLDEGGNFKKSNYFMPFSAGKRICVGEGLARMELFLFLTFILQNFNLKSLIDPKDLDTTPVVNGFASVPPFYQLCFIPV
Experimental: Vivid™ CYP2C19 Blue Screening Kit (Thermo Scientific; Cat. No. P2864).
Vivid® CYP450 2X Reaction Buffer 100 Mm, CYP2C19 BACULOSOMES® Plus Reagent 0.5 nmol (Recombinant human cytochrome P450), 0.5 mL Vivid® Regeneration System (Glucose-6-phosphate and 30U/mL Glucose-6-phosphate dehydrogenase in 100 mM Potassium phosphate), 0.5 mL Vivid® NADP + , Vivid® EOMCC Substrate 0.1 mg, Vivid® Blue Fluorescent Standard 0.1 µmol.
Test compounds: Dissolved in DMSO; diluted to 2.5X in 1X buffer.
Positive control inhibitor (Ticlopidine): Stock in DMSO; 2.5X dilution in 1X buffer.
Master Pre-Mix: P450 BACULOSOMES® (50 µL) + Vivid® Regeneration System (100 µL) in 1X buffer.
Substrate/NADP + Mixture: Reconstituted substrate (0.1 mg in 205 µL acetonitrile); added 50 µL substrate + 30 µL NADP + (100X).
A high-throughput fluorometric assay was conducted using a black 96-well microplate. Fluorescence measurements were recorded on a BioTek Synergy H1 multimode microplate reader (Agilent, US) with the appropriate excitation/emission wavelength. The assay followed the protocol provided by Life Technologies, USA. Test compounds were evaluated based on their ability to inhibit fluorescent signal production in reactions involving recombinant CYP isozymes and specific substrates. For IC50 determination, two-fold serial dilutions of the test samples were prepared, and the plates were incubated at 37 °C for 20 min. The enzymatic reaction was initiated by adding a mixture of NADP + and the appropriate substrate, followed by a 10-min incubation at 37 °C. The reaction was then stopped by adding 0.5 M Tris buffer (end-point assay). Fluorescence data was collected at eight different concentrations for both inhibitors and test compounds, with all measurements performed in duplicate.
Fluorescence data were collected after the incubation period, to calculate the percentage inhibition using the following formula: [drawing 1]
X = Fluorescence intensity of test compound (PPIs), A = Fluorescence intensity of solvent control (Fluorescence standard), B = Fluorescence intensity of the positive inhibitor (Ticlopidine).
IC50 values for CYP2C19 (the concentration required to inhibit 50% of CYP2C19 activity) inhibition were calculated using nonlinear regression analysis in GraphPad Prism 9 software.
IC₅₀,u (unbound IC₅₀) was calculated using the formula: [drawing 2] fu, inc = Fraction unbound in the incubation system (0.02, as per regulatory assumptions for highly protein-bound drugs).
The unbound inhibition constant (Ki,u) was determined using the Cheng-Prusoff equation: [drawing 3]
S = Substrate concentration used in the assay, IC₅₀,u = unbound half-maximal inhibitory concentration, Km = Michaelis constant for the substrate.
Fluorometric assay is the most commonly used method to identify the CYP inhibition of compounds in early drug discovery due to its sensitivity, speed, low cost, and ease of use. This method helps to ensure the drug interaction potential of the test compound on the important CYP isoforms such as CYP2C19. Inhibitor potency was quantified by determining IC50 values, which in turn was carried out using fixed substrate and inhibitor concentrations. Ilaprazole, Conventional PPIs, and Positive Control (Ticlopidine) were assayed between concentrations ranging from 0.8 to 6.4 μg/mL (Eight Different Concentration). All samples were assayed in duplicate as per the experimental condition (Table 1), the endpoint mode was selected to analyze the percentage inhibition, and IC50 values were calculated.

[1] = Unbound peak plasma concentration (Cmax,u) from literature Cmax; assay type: in vivo; details: unbound peak plasma concentration = literature Cmax x fu 0.01; highest recommended doses
Excerpt: The Cmax values for Pantoprazole, Rabeprazole, Lansoprazole, and Omeprazole were obtained from reliable sources, primarily the highest recommended doses listed in the FDA drug labels[15]–[19]. However, for Ilaprazole, as no literature data was available, its Cmax was obtained from available pharmacokinetic studies [drawing 4]
Cmax,u = unbound peak plasma concentration, Cmax = Maximum plasma concentration (from literature), fu = fraction unbound in plasma (0.01 as per the guidance for high protein-bound drugs).

Structure (SMILES) | Ki (CYP2C19) | IC50 (CYP2C19) | Cmax,u [1]
Cc1c(OCC(F)(F)F)ccnc1C[S+]([O-])c1nc2ccccc2[nH]1 (stereo not drawn) [Lansoprazole] | 41.3 µM | 1.65 ± 1.37 µM | 0.0115 µg/mL and 0.0311 µM
COc1ccc2[nH]c([S+]([O-])Cc3ncc(C)c(OC)c3C)nc2c1 (stereo not drawn) [Omeprazole] | 35.2 µM | 1.41 ± 0.96 µM | 0.0112 µg/mL and 0.0324 µM
COc1ccnc(C[S+]([O-])c2nc3ccc(OC(F)F)cc3[nH]2)c1OC (stereo not drawn) [Pantoprazole] | 88 µM | 3.52 ± 1.47 µM | 0.025 µg/mL and 0.0652 µM

Continued by falling Ki (CYP2C19), values first:

Ki (CYP2C19) | IC50 (CYP2C19) | Cmax,u [1] | Structure (SMILES)
166 µM | 6.62 ± 1.34 µM | 0.0045 µg/mL and 0.0123 µM | COc1ccnc(C[S+]([O-])c2nc3cc(-n4cccc4)ccc3[nH]2)c1C (stereo not drawn) [Ilaprazole]
161 µM | 6.43 ± 1.09 µM | 0.0062 µg/mL and 0.0173 µM | COCCCOc1ccnc(C[S+]([O-])c2nc3ccccc3[nH]2)c1C (stereo not drawn) [Rabeprazole]
